Where two headings read alike, the source gives them in different places.
Test system: strains TA98
Format: cell-based
Settings: for AMES evaluation: strains TA98
Description: Regarding various specimen solutions respectively containing trisazo dyes obtained in Examples 1 to 11 to the present invention and dyes of Comparative Examples 1 to 3, the number of mutant colonies was determined using strains TA98. 2. When the ratio is less than 2, it is "negative" and, when the ratio is more than 2, it is "positive", and the results are shown in Table. 1.

SMILES | Ames test: ratio of number of colonies to control (20 μg/plate, with S-9) | Ames test: ratio of number of colonies to control (20 μg/plate, without S-9) | Ames test: ratio of number of colonies to control (78 μg/plate, with S-9) | Ames test: ratio of number of colonies to control (78 μg/plate, without S-9) | Ames test: ratio of number of colonies to control (313 μg/plate, with S-9) | Ames test: ratio of number of colonies to control (313 μg/plate, without S-9) | Ames test: ratio of number of colonies to control (1250 μg/plate, with S-9) | Ames test: ratio of number of colonies to control (1250 μg/plate, without S-9) | Ames test: ratio of number of colonies to control (5000 μg/plate, with S-9) | Ames test: ratio of number of colonies to control (5000 μg/plate, without S-9) | AMES evaluation
Nc1ccc(N=Nc2ccc(Oc3ccc(Oc4ccc(N=Nc5c(S(=O)(=O)O)cc6cc(S(=O)(=O)O)c(N=Nc7ccc(S(=O)(=O)O)cc7)c(O)c6c5N)cc4)cc3)cc2)c(O)c1 [Ex. 8] | 0.94 | 1.05 | 0.92 | 1.08 | 0.92 | 0.93 | 0.93 | 1.03 | 1.03 | 1.12 | Negative (When the ratio is less than 2, it is "negative")
CCC(C)c1ccc(N=Nc2c(S(=O)(=O)O)cc3cc(S(=O)(=O)O)c(N=Nc4ccc(Oc5ccc(Oc6ccc(N=Nc7ccc(O)cc7O)cc6)cc5)cc4)c(N)c3c2O)cc1 (centres unmarked) [Ex. 6] | 1.01 | 1.01 | 1.00 | 1.04 | 0.98 | 1.16 | 0.84 | 0.97 | 0.84 | 0.91 | Negative (When the ratio is less than 2, it is "negative")
Cc1cc(-c2ccc(N=Nc3c(S(=O)(=O)O)cc4cc(S(=O)(=O)O)c(N=Nc5ccc(S(=O)(=O)O)cc5)c(O)c4c3N)c(C)c2)ccc1N=Nc1ccc(O)cc1O [compound 3, reference compound] | 1.20 | 0.92 | 2.24 | 1.00 | 4.16 | 2.56 | 1.12 | 3.56 | 0.16 | 0.96 | Positive (when the ratio is more than 2, it is "positive")
CCC(C)c1ccc(N=Nc2c(S(=O)(=O)O)cc3cc(S(=O)(=O)O)c(N=Nc4ccc(Oc5cccc(Oc6ccc(N=Nc7ccc(O)cc7O)cc6)c5)cc4)c(N)c3c2O)cc1 (centres unmarked) [Ex. 3] | 1.32 | 0.76 | 1.79 | 0.86 | 1.59 | 0.86 | 0.76 | 1.10 | 0.56 | 0.95 | Negative (When the ratio is less than 2, it is "negative")
Nc1ccc(N=Nc2ccc(Oc3ccc(Oc4ccc(N=Nc5c(S(=O)(=O)O)cc6cc(S(=O)(=O)O)c(N=Nc7ccccc7)c(O)c6c5N)cc4)cc3)cc2)c(O)c1 [Ex. 4] | 1.04 | 0.88 | 1.23 | 0.79 | 0.99 | 0.96 | 0.88 | 1.15 | 0.90 | 0.92 | Negative (When the ratio is less than 2, it is "negative")
Cc1ccccc1N=Nc1c(S(=O)(=O)O)cc2cc(S(=O)(=O)O)c(N=Nc3ccc(Oc4ccc(Oc5ccc(N=Nc6ccc(O)cc6O)cc5)cc4)cc3)c(N)c2c1O [Ex. 7] | 0.94 | 0.95 | 0.89 | 1.00 | 1.00 | 0.80 | 1.05 | 0.80 | 1.05 | 1.00 | Negative (When the ratio is less than 2, it is "negative")
Cc1cc(-c2ccc(N=Nc3c(S(=O)(=O)O)cc4cc(S(=O)(=O)O)c(N=Nc5ccccc5)c(O)c4c3N)c(C)c2)ccc1N=Nc1ccc(N)cc1N [compound 1, reference compound] | 1.92 | 0.72 | 2.35 | 0.68 | 2.50 | 0.84 | 1.50 | 0.76 | 0.85 | 0.96 | Positive (when the ratio is more than 2, it is "positive")
Nc1ccc(N=Nc2ccc(S(=O)(=O)c3ccc(N=Nc4c(S(=O)(=O)O)cc5cc(S(=O)(=O)O)c(N=Nc6ccccc6)c(O)c5c4N)cc3)cc2)c(O)c1 [compound 2, reference compound] | 5.26 | 1.10 | 26.3 | 1.52 | 9.11 | 1.29 | 1.23 | 1.38 | 1.61 | 3.38 | Positive (when the ratio is more than 2, it is "positive")
Nc1c(N=Nc2ccc(Oc3ccc(Oc4ccc(N=Nc5ccc(O)cc5O)cc4)cc3)cc2)cc(S(=O)(=O)O)c2ccc(N=Nc3ccccc3)c(O)c12 [Ex. 10] | 0.91 | 1.03 | 0.92 | 1.01 | 0.85 | 0.84 | 1.09 | 1.02 | 0.90 | 0.97 | Negative (When the ratio is less than 2, it is "negative")
Nc1ccc2c(O)c(N=Nc3ccccc3)c(S(=O)(=O)O)cc2c1N=Nc1ccc(Oc2ccc(Oc3ccc(N=Nc4ccc(O)cc4O)cc3)cc2)cc1 [Ex. 11] | 1.25 | 0.96 | 1.64 | 1.00 | 1.34 | 0.81 | 0.64 | 1.04 | 1.07 | 1.35 | Negative (When the ratio is less than 2, it is "negative")
Nc1c(N=Nc2ccc(Oc3cccc(Oc4ccc(N=Nc5ccc(O)cc5O)cc4)c3)cc2)c(S(=O)(=O)O)cc2cc(S(=O)(=O)O)c(N=Nc3ccccc3)c(O)c12 [Ex. 2] | 1.34 | 1.07 | 1.19 | 1.20 | 1.39 | 1.02 | 1.28 | 1.16 | 1.27 | 1.28 | Negative (When the ratio is less than 2, it is "negative")
Nc1c(N=Nc2ccc(Oc3ccc(Oc4ccc(N=Nc5ccc(O)cc5O)cc4)cc3)cc2)c(S(=O)(=O)O)cc2cc(S(=O)(=O)O)c(N=Nc3ccccc3)c(O)c12 [Ex. 5] | 0.93 | 0.89 | 1.04 | 0.95 | 0.86 | 0.63 | 1.04 | 0.79 | 0.57 | 0.68 | Negative (When the ratio is less than 2, it is "negative")
Nc1ccc(N=Nc2ccc(Oc3cccc(Oc4ccc(N=Nc5c(S(=O)(=O)O)cc6cc(S(=O)(=O)O)c(N=Nc7ccccc7)c(O)c6c5N)cc4)c3)cc2)c(O)c1 [Ex. 1] | 1.13 | 0.76 | 0.94 | 0.86 | 1.06 | 0.86 | 0.53 | 0.76 | 0.59 | 0.71 | Negative (When the ratio is less than 2, it is "negative")

— patent US5336763A, “Trisazo dye and dye composition containing the same” (Orient Chemical Industries, Ltd., priority 1992, dated 1994)
